Results published in ChEMBL document CHEMBL3297733, “Discovery and optimization of pyrrolo[1,2-a]pyrazinones leads to novel and selective inhibitors of PIM kinases” (Bioorg Med Chem, 2013).

Key:
[1] = target: Mast/stem cell growth factor receptor Kit (Homo sapiens, UniProt P10721); assay: Inhibition of KIT (unknown origin)
[2] = target: Mitotic checkpoint serine/threonine-protein kinase BUB1 (Homo sapiens, UniProt O43683); assay: Inhibition of BUB1 (unknown origin)
[3] = Clearance in human hepatocytes; format: ADME, cell-based, Hepatocyte; details: read-out: CLH
[4] = target: Tyrosine-protein kinase Lck (Homo sapiens, UniProt P06239); assay: Inhibition of LCK (unknown origin)
[5] = target: Serine/threonine-protein kinase NIM1 (Homo sapiens, UniProt Q8IY84); assay: Inhibition of NIM1 (unknown origin)
[6] = target: Glycogen synthase kinase-3 beta (Homo sapiens, UniProt P49841); assay: Inhibition of GSK3beta (unknown origin)
[7] = Intrinsic clearance in human liver microsomes after 5 mins by LC-MS/MS analysis; format: ADME; details: read-out: CLH
[8] = target: Serine/threonine-protein kinase pim-1 (Mus musculus) (UniProt P06803); assay: Inhibition of PIM1 in mouse BA/F3 cells assessed as phosphorylation of BAD at S112 after 24 hrs by Western blotting analysis; format: cell-based; details: BaF3
Insulin receptor = Insulin receptor (Homo sapiens, UniProt P06213); assay: Inhibition of IR (unknown origin)
[9] = target: Protein kinase C beta type (Homo sapiens, UniProt P05771); assay: Inhibition of PKC-beta (unknown origin)
[10] = Plasma protein binding in rat; format: ADME, cell-free; details: read-out: PPB (converted)
[11] = Oral bioavailability in BALB/c mouse at 8.2 mg/kg; format: ADME, organism-based; details: in vivo
[12] = Cytotoxicity against human NCI-H929 cells after 72 hrs by CellTitre-Glo assay; format: functional, cell-based; details: NCI-H929, 72 h
hERG (KCNH2) = hERG (KCNH2) (Homo sapiens, UniProt Q12809); assay: Inhibition of human ERG channel at 10 uM
Ephrin type-A receptor 2 = Ephrin type-A receptor 2 (Homo sapiens, UniProt P29317); assay: Inhibition of EphA2 (unknown origin)
[13] = target: Serine/threonine-protein kinase pim-1 (Homo sapiens, UniProt P11309); assay: Inhibition of human PIM1 using ARK-RERTYSFGHHA as substrate incubated for 60 mins prior to substrate addition by topcount scintillation counting analysis in presence of [P33gamma]-ATP
[14] = target: Mitogen-activated protein kinase 14 (Homo sapiens, UniProt Q16539); assay: Inhibition of P38alpha (unknown origin)
Activated CDC42 kinase 1 = Activated CDC42 kinase 1 (Homo sapiens, UniProt Q07912); assay: Inhibition of ACK1 (unknown origin)
[15] = target: Serine/threonine-protein kinase pim-1 (Mus musculus) (UniProt P06803); assay: Inhibition of PIM1 in mouse BA/F3 cells assessed as phosphorylation of 4EBP1 at T37/T46 after 24 hrs by Western blotting analysis; format: cell-based; details: BaF3
[16] = target: Inhibitor of nuclear factor kappa-B kinase subunit beta (Homo sapiens, UniProt O14920); assay: Inhibition of IKK2 (unknown origin)
[17] = target: Vascular endothelial growth factor receptor 3 (Homo sapiens, UniProt P35916); assay: Inhibition of VGFR3 (unknown origin)
[18] = target: Serine/threonine-protein kinase Chk1 (Homo sapiens, UniProt O14757); assay: Inhibition of CHK1 (unknown origin)
[19] = AUC in BALB/c mouse at 8.2 mg/kg, iv; format: ADME, organism-based; design: dose 8.2 mg/kg, route intravenous; details: plasma
Cytochrome P450 2C9 = Cytochrome P450 2C9 (Homo sapiens, UniProt P11712); assay: Inhibition of CYP2C9 (unknown origin); format: ADME
[20] = target: ALK tyrosine kinase receptor (Homo sapiens, UniProt Q9UM73); assay: Inhibition of ALK (unknown origin)
[21] = target: Serine/threonine-protein kinase Nek6 (Homo sapiens, UniProt Q9HC98); assay: Inhibition of NEK6 (unknown origin)
[22] = Half life in BALB/c mouse at 8.2 mg/kg, iv; format: ADME, organism-based; design: dose 8.2 mg/kg, route intravenous; details: in vivo
Focal adhesion kinase 1 = Focal adhesion kinase 1 (Homo sapiens, UniProt Q05397); assay: Inhibition of FAK (unknown origin)
Cytochrome P450 2D6 = Cytochrome P450 2D6 (Homo sapiens, UniProt P10635); assay: Inhibition of CYP2D6 (unknown origin); format: ADME
[23] = target: RAC-alpha serine/threonine-protein kinase (Homo sapiens, UniProt P31749); assay: Inhibition of AKT1 (unknown origin)
Aurora kinase A = Aurora kinase A (Homo sapiens, UniProt O14965); assay: Inhibition of aurora kinase 1 (unknown origin)
[24] = target: Protein-tyrosine kinase 6 (Homo sapiens, UniProt Q13882); assay: Inhibition of BRK (unknown origin)
[25] = target: Tyrosine-protein kinase JAK3 (Homo sapiens, UniProt P52333); assay: Inhibition of JAK3 (unknown origin)
[26] = target: Fibroblast growth factor receptor 1 (Homo sapiens, UniProt P11362); assay: Inhibition of FGFR1 (unknown origin)
[27] = target: Serine/threonine-protein kinase 26 (Homo sapiens, UniProt Q9P289); assay: Inhibition of MST4 (unknown origin)
[28] = target: Tyrosine-protein kinase Lyn (Homo sapiens, UniProt P07948); assay: Inhibition of LYN (unknown origin)
[29] = Cytotoxicity against mouse BA/F3 cells after 72 hrs by CellTitre-Glo assay; format: cell-based; details: BaF3, 72 h
[30] = Volume of distribution at steady state in BALB/c mouse at 8.2 mg/kg, iv; format: ADME, organism-based; design: dose 8.2 mg/kg, route intravenous; details: in vivo, read-out: Vdss
Casein kinase II = Casein kinase II (Homo sapiens, UniProt P19784+P67870+P68400); assay: Inhibition of CK2 (unknown origin); format: protein-complex assay
[31] = Plasma protein binding in mouse; format: ADME; details: read-out: PPB (converted)
[32] = Apparent permeability from apical to basolateral side in human Caco2 cells after 120 mins by LC-MS/MS analysis; details: Caco-2
Aurora kinase B = Aurora kinase B (Homo sapiens, UniProt Q96GD4); assay: Inhibition of aurora kinase 2 (unknown origin)
[33] = target: Tyrosine-protein kinase SYK (Homo sapiens, UniProt P43405); assay: Inhibition of Syk (unknown origin)
LP-1 = assay: Cytotoxicity against human LP-1 cells after 72 hrs by CellTitre-Glo assay; format: functional, cell-based; details: LP-1, 72 h
[34] = target: MAP kinase-interacting serine/threonine-protein kinase 2 (Homo sapiens, UniProt Q9HBH9); assay: Inhibition of MNK2 (unknown origin)
[35] = target: Hepatocyte growth factor receptor (Homo sapiens, UniProt P08581); assay: Inhibition of c-MET (unknown origin)
[36] = target: Tyrosine-protein kinase JAK1 (Homo sapiens, UniProt P23458); assay: Inhibition of JAK1 (unknown origin)
[37] = Inhibition of CDK2/CYCA (unknown origin); design: species or system Homo sapiens
[38] = target: High affinity nerve growth factor receptor (Homo sapiens, UniProt P04629); assay: Inhibition of TRKA (unknown origin)
RPMI-8226 = assay: Cytotoxicity against human RPMI8226 cells after 72 hrs by CellTitre-Glo assay; format: functional, cell-based; details: RPMI-8226, 72 h
[39] = target: Serine/threonine-protein kinase PLK1 (Homo sapiens, UniProt P53350); assay: Inhibition of PLK1 (unknown origin)
[40] = target: Vascular endothelial growth factor receptor 2 (Homo sapiens, UniProt P35968); assay: Inhibition of VEGFR2 (unknown origin)

Chain of Serine/threonine-protein kinase pim-1 (Mus musculus) (P06803 whole entry, looked up): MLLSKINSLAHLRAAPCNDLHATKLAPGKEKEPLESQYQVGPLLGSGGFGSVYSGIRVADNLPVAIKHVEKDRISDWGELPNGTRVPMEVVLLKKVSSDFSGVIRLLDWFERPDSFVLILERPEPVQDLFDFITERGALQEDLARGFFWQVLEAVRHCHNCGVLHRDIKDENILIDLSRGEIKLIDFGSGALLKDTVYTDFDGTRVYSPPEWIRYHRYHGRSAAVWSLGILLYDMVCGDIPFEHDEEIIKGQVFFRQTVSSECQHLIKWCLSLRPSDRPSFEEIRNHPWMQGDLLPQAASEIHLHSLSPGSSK
Chain of Tyrosine-protein kinase JAK1 (P23458 whole entry): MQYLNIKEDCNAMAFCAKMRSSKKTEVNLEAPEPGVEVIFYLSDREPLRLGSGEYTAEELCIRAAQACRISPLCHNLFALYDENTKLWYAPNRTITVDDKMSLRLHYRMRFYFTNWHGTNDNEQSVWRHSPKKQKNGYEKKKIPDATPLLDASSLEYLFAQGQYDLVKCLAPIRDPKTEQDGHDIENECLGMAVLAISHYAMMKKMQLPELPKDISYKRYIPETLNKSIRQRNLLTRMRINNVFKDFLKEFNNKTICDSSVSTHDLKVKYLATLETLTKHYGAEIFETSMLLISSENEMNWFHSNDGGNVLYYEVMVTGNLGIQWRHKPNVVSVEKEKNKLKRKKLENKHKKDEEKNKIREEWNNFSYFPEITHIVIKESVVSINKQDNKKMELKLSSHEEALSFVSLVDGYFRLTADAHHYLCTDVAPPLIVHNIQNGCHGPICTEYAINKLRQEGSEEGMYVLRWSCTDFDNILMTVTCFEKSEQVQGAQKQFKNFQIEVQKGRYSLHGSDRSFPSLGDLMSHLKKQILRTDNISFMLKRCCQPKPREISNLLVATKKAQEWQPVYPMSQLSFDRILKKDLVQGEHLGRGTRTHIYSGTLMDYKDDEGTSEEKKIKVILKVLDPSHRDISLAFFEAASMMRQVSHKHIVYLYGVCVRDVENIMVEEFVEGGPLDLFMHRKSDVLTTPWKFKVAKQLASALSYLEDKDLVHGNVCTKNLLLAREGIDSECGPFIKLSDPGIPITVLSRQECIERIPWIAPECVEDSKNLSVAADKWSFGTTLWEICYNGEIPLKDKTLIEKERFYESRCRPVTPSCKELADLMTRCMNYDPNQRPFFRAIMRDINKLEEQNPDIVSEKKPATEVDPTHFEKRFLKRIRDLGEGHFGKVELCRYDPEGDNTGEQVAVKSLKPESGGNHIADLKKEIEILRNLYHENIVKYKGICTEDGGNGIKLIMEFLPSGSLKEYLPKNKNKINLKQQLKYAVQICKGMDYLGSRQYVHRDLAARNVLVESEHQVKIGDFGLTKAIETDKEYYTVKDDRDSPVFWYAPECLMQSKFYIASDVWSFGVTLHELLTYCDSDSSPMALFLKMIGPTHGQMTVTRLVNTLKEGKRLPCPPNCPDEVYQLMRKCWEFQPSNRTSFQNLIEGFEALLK
Chain of ALK tyrosine kinase receptor (Q9UM73 whole entry): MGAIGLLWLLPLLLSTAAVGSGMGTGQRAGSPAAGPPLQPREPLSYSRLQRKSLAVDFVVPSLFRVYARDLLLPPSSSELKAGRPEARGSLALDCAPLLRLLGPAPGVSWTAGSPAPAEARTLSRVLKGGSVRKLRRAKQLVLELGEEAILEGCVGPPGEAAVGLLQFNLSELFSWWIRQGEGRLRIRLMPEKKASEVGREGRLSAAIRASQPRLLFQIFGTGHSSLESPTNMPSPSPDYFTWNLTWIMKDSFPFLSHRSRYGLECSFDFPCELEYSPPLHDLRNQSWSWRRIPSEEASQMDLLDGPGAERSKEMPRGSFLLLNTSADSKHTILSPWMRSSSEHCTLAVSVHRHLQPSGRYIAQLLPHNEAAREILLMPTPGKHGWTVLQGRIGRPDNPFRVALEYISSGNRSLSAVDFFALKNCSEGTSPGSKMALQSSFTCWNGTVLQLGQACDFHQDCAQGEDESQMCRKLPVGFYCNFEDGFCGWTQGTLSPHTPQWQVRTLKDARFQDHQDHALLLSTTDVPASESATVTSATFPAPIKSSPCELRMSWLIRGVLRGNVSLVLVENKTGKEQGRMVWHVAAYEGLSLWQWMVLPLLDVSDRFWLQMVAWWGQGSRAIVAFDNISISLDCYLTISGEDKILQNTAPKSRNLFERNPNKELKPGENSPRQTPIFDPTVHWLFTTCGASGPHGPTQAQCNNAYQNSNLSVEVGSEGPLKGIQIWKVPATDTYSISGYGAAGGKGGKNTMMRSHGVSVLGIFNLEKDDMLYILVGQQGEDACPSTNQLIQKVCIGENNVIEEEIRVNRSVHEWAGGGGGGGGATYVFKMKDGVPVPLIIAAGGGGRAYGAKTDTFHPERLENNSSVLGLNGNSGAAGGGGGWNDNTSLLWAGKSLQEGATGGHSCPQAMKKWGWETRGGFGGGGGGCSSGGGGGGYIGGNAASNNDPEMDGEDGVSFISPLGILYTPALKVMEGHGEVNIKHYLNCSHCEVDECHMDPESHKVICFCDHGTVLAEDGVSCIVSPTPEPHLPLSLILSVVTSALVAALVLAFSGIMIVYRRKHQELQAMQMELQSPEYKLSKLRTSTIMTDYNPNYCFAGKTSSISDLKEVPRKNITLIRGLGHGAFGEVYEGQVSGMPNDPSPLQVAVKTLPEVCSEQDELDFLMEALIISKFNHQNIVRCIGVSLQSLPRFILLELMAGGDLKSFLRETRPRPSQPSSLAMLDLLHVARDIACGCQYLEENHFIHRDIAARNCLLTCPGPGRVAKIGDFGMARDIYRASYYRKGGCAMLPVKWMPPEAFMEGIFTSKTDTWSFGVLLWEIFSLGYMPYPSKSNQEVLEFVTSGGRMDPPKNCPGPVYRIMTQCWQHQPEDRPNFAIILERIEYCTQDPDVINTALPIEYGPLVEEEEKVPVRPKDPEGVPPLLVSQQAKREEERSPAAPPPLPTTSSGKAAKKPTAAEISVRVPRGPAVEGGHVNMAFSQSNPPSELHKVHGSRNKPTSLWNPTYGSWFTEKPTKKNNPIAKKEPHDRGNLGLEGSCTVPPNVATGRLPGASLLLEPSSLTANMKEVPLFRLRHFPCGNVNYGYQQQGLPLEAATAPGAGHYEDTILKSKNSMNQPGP
Chain of Protein-tyrosine kinase 6 (Q13882 whole entry): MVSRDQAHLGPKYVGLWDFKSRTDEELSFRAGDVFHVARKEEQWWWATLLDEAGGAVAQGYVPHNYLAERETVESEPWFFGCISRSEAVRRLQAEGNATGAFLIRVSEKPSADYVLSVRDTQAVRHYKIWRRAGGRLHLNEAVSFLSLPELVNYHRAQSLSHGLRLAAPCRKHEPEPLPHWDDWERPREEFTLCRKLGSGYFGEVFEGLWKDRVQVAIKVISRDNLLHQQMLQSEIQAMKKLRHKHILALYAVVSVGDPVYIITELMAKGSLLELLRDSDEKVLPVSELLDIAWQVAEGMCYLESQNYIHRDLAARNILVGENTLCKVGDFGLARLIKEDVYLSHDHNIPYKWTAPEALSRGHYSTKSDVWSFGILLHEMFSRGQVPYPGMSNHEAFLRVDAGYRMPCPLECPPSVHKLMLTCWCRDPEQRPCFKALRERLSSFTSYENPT
Chain of Glycogen synthase kinase-3 beta (P49841 whole entry): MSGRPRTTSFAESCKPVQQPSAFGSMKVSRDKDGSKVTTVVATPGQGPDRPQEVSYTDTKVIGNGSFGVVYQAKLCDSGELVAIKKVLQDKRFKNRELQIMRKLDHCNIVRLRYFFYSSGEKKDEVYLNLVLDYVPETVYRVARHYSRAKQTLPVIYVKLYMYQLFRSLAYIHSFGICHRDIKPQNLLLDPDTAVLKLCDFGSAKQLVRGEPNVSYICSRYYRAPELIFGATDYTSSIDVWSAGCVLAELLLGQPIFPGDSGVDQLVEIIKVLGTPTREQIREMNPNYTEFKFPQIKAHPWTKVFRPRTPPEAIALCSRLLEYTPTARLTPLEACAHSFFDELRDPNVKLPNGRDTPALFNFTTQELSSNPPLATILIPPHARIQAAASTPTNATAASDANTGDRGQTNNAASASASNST
Chain of MAP kinase-interacting serine/threonine-protein kinase 2 (Q9HBH9 whole entry): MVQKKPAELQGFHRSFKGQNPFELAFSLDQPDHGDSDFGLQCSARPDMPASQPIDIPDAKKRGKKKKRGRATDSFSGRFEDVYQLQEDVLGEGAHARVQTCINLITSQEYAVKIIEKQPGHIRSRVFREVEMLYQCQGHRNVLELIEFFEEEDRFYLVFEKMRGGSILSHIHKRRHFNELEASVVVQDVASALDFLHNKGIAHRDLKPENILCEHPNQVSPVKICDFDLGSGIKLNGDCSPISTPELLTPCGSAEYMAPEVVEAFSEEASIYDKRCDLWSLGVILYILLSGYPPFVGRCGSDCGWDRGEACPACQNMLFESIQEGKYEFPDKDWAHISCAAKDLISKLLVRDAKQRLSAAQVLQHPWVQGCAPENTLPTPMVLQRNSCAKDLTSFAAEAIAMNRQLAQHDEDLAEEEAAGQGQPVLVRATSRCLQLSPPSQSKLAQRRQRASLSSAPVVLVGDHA
Chain of RAC-alpha serine/threonine-protein kinase (P31749 whole entry): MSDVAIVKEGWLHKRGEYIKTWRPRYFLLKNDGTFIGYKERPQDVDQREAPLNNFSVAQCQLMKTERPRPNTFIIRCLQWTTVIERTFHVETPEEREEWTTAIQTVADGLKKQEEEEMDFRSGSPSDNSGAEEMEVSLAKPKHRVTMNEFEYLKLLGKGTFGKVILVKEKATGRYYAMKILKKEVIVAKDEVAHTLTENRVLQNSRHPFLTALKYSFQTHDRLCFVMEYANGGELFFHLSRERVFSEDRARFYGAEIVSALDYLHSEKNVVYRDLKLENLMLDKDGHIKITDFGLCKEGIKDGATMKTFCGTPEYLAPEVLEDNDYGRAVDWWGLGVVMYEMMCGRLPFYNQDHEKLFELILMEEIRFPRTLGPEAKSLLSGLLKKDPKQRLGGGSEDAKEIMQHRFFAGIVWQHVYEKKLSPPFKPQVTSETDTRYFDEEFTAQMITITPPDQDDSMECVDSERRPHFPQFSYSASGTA

With CN1CCN(C[C@@H](NC(=O)C[C@H]2CNC(=O)c3cc(-c4cccc(Cl)c4)cn32)C2CCCCC2)CC1 the IC50 [1] was over 10 µM, the IC50 [2] was over 10 µM and the CLint scaled [3] was 5.9 mL/min/kg. The IC50 [4] was over 10 µM, the IC50 [5] was over 10 µM and the IC50 [6] was over 10 µM. For the same compound, the CLint scaled [7] was 5.9 mL/min/kg, the inhibition [8] was “Dose-dependent effect” and the IC50 (Insulin receptor) was over 10 µM. The IC50 [9] was over 10 µM, the fraction unbound [10] was 0.036 and the bioavailability [11] was 0.65%. For the same compound, the IC50 [12] was 5.93 µM, the inhibition at 10 µM (hERG (KCNH2)) was 16% and the IC50 (Ephrin type-A receptor 2) was over 10 µM. The IC50 [13] was 0.03 µM, the IC50 [14] was over 10 µM and the IC50 (Activated CDC42 kinase 1) was over 10 µM. For the same compound, the inhibition [15] was “Dose-dependent effect”, the IC50 [16] was over 10 µM and the IC50 [17] was over 10 µM. It also gave an IC50 [18] of over 10 µM, an AUC [19] of 8.75 µM·h and an IC50 (Cytochrome P450 2C9) of over 10 µM. For the same compound, the IC50 [20] was over 10 µM, the IC50 [21] was over 10 µM and the half-life [22] was 13.6 h. For the same compound, the IC50 (Focal adhesion kinase 1) was over 10 µM, the IC50 (Cytochrome P450 2D6) was over 10 µM and the IC50 [23] was over 10 µM. It also gave an IC50 (Aurora kinase A) of over 10 µM, an IC50 [24] of over 10 µM and an IC50 [25] of over 10 µM. For the same compound, the IC50 [26] was over 10 µM, the IC50 [27] was over 10 µM and the IC50 [28] was over 10 µM. For the same compound, the IC50 [29] was over 10 µM, the Vd [30] was 11.3 L/kg and the IC50 (Casein kinase II) was over 10 µM. For the same compound, the fraction unbound [31] was 0.02, the Papp A→B at 2 h [32] was 8.4 ×10⁻⁶ cm/s and the IC50 (Aurora kinase B) was over 10 µM. The IC50 [33] was over 10 µM, the IC50 (LP-1) was 1.93 µM and the IC50 [34] was over 10 µM. It also gave an IC50 [35] of over 10 µM, an IC50 [36] of over 10 µM and an IC50 [37] of over 10 µM. For the same compound, the IC50 [38] was over 10 µM, the IC50 (RPMI-8226) was 6.66 µM and the IC50 [39] was over 10 µM. For the same compound, the IC50 [40] was over 10 µM.
